BindingDB's records for patent US20250197375 (Kineta, 2025)

Target: T1, 1-phosphatidylinositol 3-phosphate 5-kinase [S696N,L932S,Q995L,T998S,S1033A,Q1183K] (Homo sapiens, UniProt Q9Y2I7, L932S/Q1183K/Q995L/S1033A/S696N/T998S)
T1 construct: gene PIKFYVE
Assay: PIKfyve Inhibitory Activity Assay
Description: PIKfyve Biochemical Assay. The biochemical PIKFyve inhibition assays were run by Cama Biosciences according to proprietary methodology based on the Promega ADP-Glo™ Kinase assay. […] GST-PIKFYVE was purified by using glutathione sepharose chromatography and used in an ADP-Glo™ Kinase assay (Promega). Reactions were set up by adding the test compound solution, substrate solution, ATP solution and kinase solution, each at 4× final concentrations. Reactions were prepared with assay buffer (50 mM MOPS, 1 mM DTT, pH7.2), mixed, and incubated in black 384 well polystyrene plates for 1 hour at room temperature. ADP-Glo™ reagent was then added for 40 minutes, followed by kinase detection reagent for an additional 40 minutes. The kinase activity was evaluated by detecting relative light units on a luminescence plate reader. Samples were run in duplicate from 10 μM to 3 nM. […] IC50 values were calculated from concentration versus percent inhibition curves by fitting to a four-parameter logistic curve.

T1 sequence (Q9Y2I7 2-2098 S696N/L932S/Q995L/T998S/S1033A/Q1183K limits assumed): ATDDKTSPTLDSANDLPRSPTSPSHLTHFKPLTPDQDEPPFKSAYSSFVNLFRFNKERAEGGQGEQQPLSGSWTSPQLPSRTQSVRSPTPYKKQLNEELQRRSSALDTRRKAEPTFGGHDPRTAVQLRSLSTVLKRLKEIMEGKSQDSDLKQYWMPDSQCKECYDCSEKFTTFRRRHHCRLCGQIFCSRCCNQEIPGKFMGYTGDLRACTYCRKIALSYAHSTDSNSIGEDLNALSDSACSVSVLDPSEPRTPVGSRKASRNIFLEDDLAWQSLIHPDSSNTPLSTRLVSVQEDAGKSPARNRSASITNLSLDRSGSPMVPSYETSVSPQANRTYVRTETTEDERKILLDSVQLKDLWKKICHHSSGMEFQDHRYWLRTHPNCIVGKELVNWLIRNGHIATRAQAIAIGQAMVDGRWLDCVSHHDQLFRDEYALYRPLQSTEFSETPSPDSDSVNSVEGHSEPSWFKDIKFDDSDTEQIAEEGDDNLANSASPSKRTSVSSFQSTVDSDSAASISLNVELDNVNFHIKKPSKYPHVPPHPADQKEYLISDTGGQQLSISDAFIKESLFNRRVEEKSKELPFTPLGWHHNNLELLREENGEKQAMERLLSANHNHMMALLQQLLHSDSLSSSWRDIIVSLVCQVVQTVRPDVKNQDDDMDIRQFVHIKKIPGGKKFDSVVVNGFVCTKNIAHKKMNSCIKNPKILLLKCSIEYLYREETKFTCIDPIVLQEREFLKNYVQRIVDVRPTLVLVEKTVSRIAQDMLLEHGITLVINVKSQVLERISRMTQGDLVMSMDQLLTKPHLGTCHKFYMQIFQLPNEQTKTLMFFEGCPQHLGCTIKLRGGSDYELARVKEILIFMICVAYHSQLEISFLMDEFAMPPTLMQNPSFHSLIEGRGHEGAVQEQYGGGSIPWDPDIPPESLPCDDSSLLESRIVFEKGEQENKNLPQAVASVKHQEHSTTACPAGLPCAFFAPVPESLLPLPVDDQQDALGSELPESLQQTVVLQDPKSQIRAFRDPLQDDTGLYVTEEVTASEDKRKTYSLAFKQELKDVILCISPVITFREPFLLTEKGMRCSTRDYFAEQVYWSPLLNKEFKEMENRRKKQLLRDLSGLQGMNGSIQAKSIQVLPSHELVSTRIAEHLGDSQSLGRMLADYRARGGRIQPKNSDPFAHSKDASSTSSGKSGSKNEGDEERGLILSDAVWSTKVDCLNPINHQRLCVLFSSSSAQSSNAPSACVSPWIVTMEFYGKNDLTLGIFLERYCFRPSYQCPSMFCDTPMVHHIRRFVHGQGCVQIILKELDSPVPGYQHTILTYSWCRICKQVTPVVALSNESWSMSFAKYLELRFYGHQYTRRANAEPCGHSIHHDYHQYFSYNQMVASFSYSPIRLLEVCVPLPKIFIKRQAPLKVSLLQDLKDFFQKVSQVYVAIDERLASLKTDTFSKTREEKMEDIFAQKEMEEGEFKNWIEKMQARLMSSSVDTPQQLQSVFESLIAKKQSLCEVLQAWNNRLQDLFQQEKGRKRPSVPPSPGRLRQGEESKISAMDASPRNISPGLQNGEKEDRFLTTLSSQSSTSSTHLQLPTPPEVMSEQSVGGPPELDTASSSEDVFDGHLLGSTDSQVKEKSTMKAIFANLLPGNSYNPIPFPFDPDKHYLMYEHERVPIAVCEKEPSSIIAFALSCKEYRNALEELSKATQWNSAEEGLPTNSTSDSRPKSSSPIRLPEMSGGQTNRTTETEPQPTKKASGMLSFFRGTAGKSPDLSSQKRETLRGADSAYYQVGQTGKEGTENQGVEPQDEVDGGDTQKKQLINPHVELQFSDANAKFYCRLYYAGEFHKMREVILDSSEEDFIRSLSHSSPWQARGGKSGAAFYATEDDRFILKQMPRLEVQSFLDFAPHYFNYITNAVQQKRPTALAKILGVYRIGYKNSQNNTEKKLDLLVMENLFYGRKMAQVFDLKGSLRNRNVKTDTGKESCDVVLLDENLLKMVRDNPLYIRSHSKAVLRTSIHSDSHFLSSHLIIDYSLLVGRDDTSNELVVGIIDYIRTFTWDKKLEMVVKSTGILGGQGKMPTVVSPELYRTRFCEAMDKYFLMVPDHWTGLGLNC

Molecule `CN(C)C(=O)c1c(Nc2ccncc2)nc(N2CCOCC2)nc1-c1cccc(-c2ccn(C)n2)c1` [US20250197375, Compound 66] has an IC50 of less than 10 nM.
